These compounds were tested against human APJ receptor (Homo sapiens (Human), UniProt P35414) (assay: Intracellular cAMP accumulation assay (APJ hcAMP, HTRF)). Settings: human APJ, cAMP accumulation; read-out: Human APJ cAMP EC50 Potency range.
Type: cell-based
Summary of the method: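 HEK293 cells stably expressing human APJ, 5,000 per well, incubated 30 min at rt with compound, […] and 2 μM forskolin. cAMP measured by HTRF against a cAMP standard curve as inhibition of forskolin-driven production. EC50 from variable-slope sigmoidal fit.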

human APJ receptor, sequence (P35414 whole entry): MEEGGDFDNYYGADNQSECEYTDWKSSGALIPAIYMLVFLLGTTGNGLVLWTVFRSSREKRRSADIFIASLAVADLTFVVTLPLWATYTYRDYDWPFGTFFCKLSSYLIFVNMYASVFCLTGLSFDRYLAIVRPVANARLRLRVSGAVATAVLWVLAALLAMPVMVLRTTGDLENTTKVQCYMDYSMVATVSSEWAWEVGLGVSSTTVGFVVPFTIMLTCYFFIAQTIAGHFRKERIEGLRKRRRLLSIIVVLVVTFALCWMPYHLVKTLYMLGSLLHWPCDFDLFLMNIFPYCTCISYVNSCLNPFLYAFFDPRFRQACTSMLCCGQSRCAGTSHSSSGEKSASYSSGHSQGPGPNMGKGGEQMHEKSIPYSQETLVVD

Row | SMILES | EC50
1 | CCOCc1nc(=O)c(S(=O)(=O)c2ccc(-c3cccnc3C)cc2)c(O)n1[C@H]1CCc2ccccc21 [Example 319, 1-[(1S)-2,3-dihydro-1H-inden-1-yl]-2-(ethoxymethyl)-6-hydroxy-5-[4-(2-methylpyridin-3-yl)benzenesulfonyl]-1,4-dihydropyrimidin-4-one] | 0.01 to 10 nM
2 | Cc1nc(F)ccc1-c1ccc(S(=O)(=O)c2c(O)n([C@H]3CCc4ccccc43)c(COC(C)C)nc2=O)cc1 [Example 320, 1-[(1S)-2,3-dihydro-1H-inden-1-yl]-5-[4-(6-fluoro-2-methylpyridin-3-yl)benzenesulfonyl]-6-hydroxy-2-[(propan-2-yloxy)methyl]-1,4-dihydropyrimidin-4-one] | 0.01 to 10 nM
3 | CCOCc1nc(=O)c(S(=O)(=O)c2ccc(-c3cncc(F)c3)cc2)c(O)n1[C@H]1CCc2ccccc21 [Example 322, 1-[(1S)-2,3-dihydro-1H-inden-1-yl]-2-(ethoxymethyl)-5-[4-(5-fluoropyridin-3-yl)benzenesulfonyl]-6-hydroxy-1,4-dihydropyrimidin-4-one] | 0.01 to 10 nM
4 | CCOCc1nc(=O)c(S(=O)(=O)c2ccc(-c3ccncc3C)cc2)c(O)n1[C@H]1CCc2ccccc21 [Example 323, 1-[(1S)-2,3-dihydro-1H-inden-1-yl]-2-(ethoxymethyl)-6-hydroxy-5-[4-(3-methylpyridin-4-yl)benzenesulfonyl]-1,4-dihydropyrimidin-4-one] | 0.01 to 10 nM
5 | CCOCc1nc(=O)c(S(=O)(=O)c2ccc(-c3ccnc(F)c3C)cc2)c(O)n1[C@H]1CCc2ccccc21 [Example 324, 1-[(1S)-2,3-dihydro-1H-inden-1-yl]-2-(ethoxymethyl)-5-[4-(2-fluoro-3-methylpyridin-4-yl)benzenesulfonyl]-6-hydroxy-1,4-dihydropyrimidin-4-one] | 0.01 to 10 nM
6 | CCOCc1nc(=O)c(S(=O)(=O)c2ccc(-c3ccc(F)nc3)cc2)c(O)n1[C@H]1CCc2ccccc21 [Example 325, 1-[(1S)-2,3-dihydro-1H-inden-1-yl]-2-(ethoxymethyl)-5-[4-(6-fluoropyridin-3-yl)benzenesulfonyl]-6-hydroxy-1,4-dihydropyrimidin-4-one] | 0.01 to 10 nM
7 | CCOCc1nc(=O)c(S(=O)(=O)c2ccc(-c3ccc(F)nc3C)cc2)c(O)n1[C@H]1CCc2ccccc21 [Example 326, 1-[(1S)-2,3-dihydro-1H-inden-1-yl]-2-(ethoxymethyl)-5-[4-(6-fluoro-2-methylpyridin-3-yl)benzenesulfonyl]-6-hydroxy-1,4-dihydropyrimidin-4-one] | 0.01 to 10 nM
8 | Cc1ncccc1-c1ccc(S(=O)(=O)c2c(O)n([C@H]3CCc4ccccc43)c(COC(C)C)nc2=O)cc1 [Example 330, 1-[(1S)-2,3-dihydro-1H-inden-1-yl]-6-hydroxy-5-[4-(2-methylpyridin-3-yl)benzenesulfonyl]-2-[(propan-2-yloxy)methyl]-1,4-dihydropyrimidin-4-one] | 0.01 to 10 nM
9 | Cc1c(-c2ccc(S(=O)(=O)c3c(O)n([C@H]4CCc5ccccc54)c(COC(C)C)nc3=O)cc2)ccnc1F [Example 331, 1-[(1S)-2,3-dihydro-1H-inden-1-yl]-5-[4-(2-fluoro-3-methylpyridin-4-yl)benzenesulfonyl]-6-hydroxy-2-[(propan-2-yloxy)methyl]-1,4-dihydropyrimidin-4-one] | 0.01 to 10 nM
10 | Cc1cnccc1-c1ccc(S(=O)(=O)c2c(O)n([C@H]3CCc4ccccc43)c(COC(C)C)nc2=O)cc1 [Example 332, 1-[(1S)-2,3-dihydro-1H-inden-1-yl]-6-hydroxy-5-[4-(3-methylpyridin-4-yl)benzenesulfonyl]-2-[(propan-2-yloxy)methyl]-1,4-dihydropyrimidin-4-one] | 0.01 to 10 nM
11 | CCOCc1nc(=O)c(S(=O)(=O)c2ccc(-c3cncc(F)c3)cc2)c(O)n1[C@@H](CC)c1ccccc1 [Example 334, 2-(ethoxymethyl)-5-[4-(5-fluoropyridin-3-yl)benzenesulfonyl]-6-hydroxy-1-[(1S)-1-phenylpropyl]-1,4-dihydropyrimidin-4-one] | 0.01 to 10 nM
12 | CCOCc1nc(=O)c(S(=O)(=O)c2ccc(-c3ccnc(F)c3C)cc2)c(O)n1[C@H]1CCOc2ccccc21 [Example 342, 1-[(4S)-3,4-dihydro-2H-1-benzopyran-4-yl]-2-(ethoxymethyl)-5-[4-(2-fluoro-3-methylpyridin-4-yl)benzenesulfonyl]-6-hydroxy-1,4-dihydropyrimidin-4-one] | 10 to 100 nM

The next lines start with the values.

Row | EC50 | SMILES
13 | 0.01 to 10 nM | COC[C@@H](c1ccccc1)n1c(COC(C)C)nc(=O)c(S(=O)(=O)c2ccc(-c3ccc(F)nc3C)cc2)c1O [Example 321, 5-[4-(6-fluoro-2-methylpyridin-3-yl)benzenesulfonyl]-6-hydroxy-1-[(1R)-2-methoxy-1-phenylethyl]-2-[(propan-2-yloxy)methyl]-1,4-dihydropyrimidin-4-one]
14 | 0.01 to 10 nM | COC[C@@H](c1ccccc1)n1c(COC(C)C)nc(=O)c(S(=O)(=O)c2ccc(-c3ccnc(F)c3C)cc2)c1O [Example 327, 5-[4-(2-fluoro-3-methylpyridin-4-yl)benzenesulfonyl]-6-hydroxy-1-[(1R)-2-methoxy-1-phenylethyl]-2-[(propan-2-yloxy)methyl]-1,4-dihydropyrimidin-4-one]
15 | 0.01 to 10 nM | COC[C@@H](c1ccccc1)n1c(COC(C)C)nc(=O)c(S(=O)(=O)c2ccc(-c3cccnc3C)cc2)c1O [Example 328]
16 | 0.01 to 10 nM | COC[C@@H](c1ccccc1)n1c(COC(C)C)nc(=O)c(S(=O)(=O)c2ccc(-c3ccncc3C)cc2)c1O [Example 329, 6-hydroxy-1-[(1R)-2-methoxy-1-phenylethyl]-5-[4-(3-methylpyridin-4-yl)benzenesulfonyl]-2-[(propan-2-yloxy)methyl]-1,4-dihydropyrimidin-4-one]
17 | 0.01 to 10 nM | COC[C@@H](c1ccccc1)n1c(COC(C)C)nc(=O)c(S(=O)(=O)c2ccc(-c3ccnc(F)c3C)c(F)c2)c1O [Example 333, 5-[3-fluoro-4-(2-fluoro-3-methylpyridin-4-yl)benzenesulfonyl]-6-hydroxy-1-[(1R)-2-methoxy-1-phenylethyl]-2-[(propan-2-yloxy)methyl]-1,4-dihydropyrimidin-4-one]
18 | 0.01 to 10 nM | COC[C@@H](c1ccccc1)n1c(COC(C)C)nc(=O)c(S(=O)(=O)c2ccc(-c3ccc(F)nc3)c(F)c2)c1O [Example 335, 5-[3-fluoro-4-(6-fluoropyridin-3-yl)benzenesulfonyl]-6-hydroxy-1-[(1R)-2-methoxy-1-phenylethyl]-2-[(propan-2-yloxy)methyl]-1,4-dihydropyrimidin-4-one]
19 | 0.01 to 10 nM | COC[C@@H](c1ccccc1)n1c(COC(C)C)nc(=O)c(S(=O)(=O)c2ccc(-c3ccncc3C)c(F)c2)c1O [Example 336, 5-[3-fluoro-4-(3-methylpyridin-4-yl)benzenesulfonyl]-6-hydroxy-1-[(1R)-2-methoxy-1-phenylethyl]-2-[(propan-2-yloxy)methyl]-1,4-dihydropyrimidin-4-one]
20 | 0.01 to 10 nM | COC[C@@H](c1ccccc1)n1c(COC(C)C)nc(=O)c(S(=O)(=O)c2ccc(F)c(F)c2)c1O [Example 337, 5-(3,4-difluorobenzenesulfonyl)-6-hydroxy-1-[(1R)-2-methoxy-1-phenylethyl]-2-[(propan-2-yloxy)methyl]-1,4-dihydropyrimidin-4-one]
21 | 0.01 to 10 nM | CCOCc1nc(=O)c(S(=O)(=O)c2ccc(-c3ccnc(F)c3C)c(F)c2)c(O)n1[C@@H](COC)c1ccccc1 [Example 338, 2-(ethoxymethyl)-5-[3-fluoro-4-(2-fluoro-3-methylpyridin-4-yl)benzenesulfonyl]-6-hydroxy-1-[(1R)-2-methoxy-1-phenylethyl]-1,4-dihydropyrimidin-4-one]
22 | 0.01 to 10 nM | CCOCc1nc(=O)c(S(=O)(=O)c2ccc(-c3ccc(F)nc3C)c(F)c2)c(O)n1[C@@H](COC)c1ccccc1 [Example 339, 2-(ethoxymethyl)-5-[3-fluoro-4-(6-fluoro-2-methylpyridin-3-yl)benzenesulfonyl]-6-hydroxy-1-[(1R)-2-methoxy-1-phenylethyl]-1,4-dihydropyrimidin-4-one]
23 | 0.01 to 10 nM | CCOCc1nc(=O)c(S(=O)(=O)c2ccc(-c3ccncc3C)c(F)c2)c(O)n1[C@@H](COC)c1ccccc1 [Example 340, 2-(ethoxymethyl)-5-[3-fluoro-4-(3-methylpyridin-4-yl)benzenesulfonyl]-6-hydroxy-1-[(1R)-2-methoxy-1-phenylethyl]-1,4-dihydropyrimidin-4-one]
24 | 0.01 to 10 nM | CCOCc1nc(=O)c(S(=O)(=O)c2ccc(-c3ccc(F)nc3)c(F)c2)c(O)n1[C@@H](COC)c1ccccc1 [Example 341, 2-(ethoxymethyl)-5-[3-fluoro-4-(6-fluoropyridin-3-yl)benzenesulfonyl]-6-hydroxy-1-[(1R)-2-methoxy-1-phenylethyl]-1,4-dihydropyrimidin-4-one]
25 | 0.01 to 10 nM | CCOCc1nc(=O)c(S(=O)(=O)c2ccc(-c3ccnc(F)c3C)c(F)c2)c(O)n1[C@@H](COC)c1cccc(C#N)c1 [Example 343, 3-[(1R)-1-[2-(ethoxymethyl)-5-[3-fluoro-4-(2-fluoro-3-methylpyridin-4-yl)benzenesulfonyl]-6-hydroxy-4-oxo-1,4-dihydropyrimidin-1-yl]-2-methoxyethyl] benzonitrile]
26 | 0.01 to 10 nM | CCOCc1nc(=O)c(S(=O)(=O)c2ccc(-c3ccc(F)nc3C)c(F)c2)c(O)n1[C@@H](COC)c1cccc(C#N)c1 [Example 344, 3-[(1R)-1-[2-(ethoxymethyl)-5-[3-fluoro-4-(6-fluoro-2-methylpyridin-3-yl)benzenesulfonyl]-6-hydroxy-4-oxo-1,4-dihydropyrimidin-1-yl]-2-methoxyethyl] benzonitrile]
27 | 0.01 to 10 nM | CCOCc1nc(=O)c(S(=O)(=O)c2ccc(-c3ccncc3C)c(F)c2)c(O)n1[C@@H](COC)c1cccc(C#N)c1 [Example 345, 3-[(1R)-1-[2-(ethoxymethyl)-5-[3-fluoro-4-(3-methylpyridin-4-yl)benzenesulfonyl]-6-hydroxy-4-oxo-1,4-dihydropyrimidin-1-yl]-2-methoxyethyl] benzonitrile]

— US10508104B2, “6-hydroxy-5-(phenyl/heteroarylsulfonyl)pyrimidin-4(1H)-one as APJ agonists” (Bristol-Myers Squibb Company, priority 2016, dated 2019)
